Measurements from ChEMBL document CHEMBL3045670, “Protective effect of selenium in Broccoli (Brassica oleracea) plants subjected to cadmium exposure” (J Agric Food Chem, 2008).
Calls of active or inactive are those of the source. The rule behind the calls is not given here.

Key:
Leaf [1] = experiment: Drug level in leaves of Brassica oleracea (Broccoli) seedlings grown in hydroponic culture containing compound at 1 mg/L in presence of 1 mg/L CdCl2 assessed as SeMetSeCys level measured after 40 days after compound treatment; type: ADME; conditions: 960 h
Root [2] = experiment: Drug level in roots of Brassica oleracea (Broccoli) seedlings grown in hydroponic culture containing compound at 1 mg/L in presence of 1 mg/L CdCl2 assessed as SeMet level measured after 40 days after compound treatment; type: ADME; conditions: 960 h
Brassica oleracea [3] = experiment: (§1) Protective effect against cadmium-induced toxicity in Brassica oleracea (Broccoli) seedlings grown in hydroponic culture containing compound at 1 mg/L in presence of 1 mg/L CdCl2 assessed as chlorophyll level assessed per dry weight after 40 days after compound treatment by spectrophotometry (reference value: 118 +/- 12 mg/kg dry weight); type: functional
Brassica oleracea [4] = experiment: Protective effect against cadmium-induced toxicity in Brassica oleracea (Broccoli) seedlings grown in hydroponic culture containing compound at 1 mg/L in presence of 1 mg/L CdCl2 assessed as attenuation of reduction in tocopherol level after 40 days after compound treatment by spectrophotometry; type: functional; set-up: scale not given: the % may be the effect or the level left
Fruit [5] = experiment: Drug level in fruits of Brassica oleracea (Broccoli) seedlings grown in hydroponic culture containing compound at 1 mg/L in presence of 1 mg/L CdCl2 assessed as SeMetSeCys level measured after 40 days after compound treatment; type: ADME; conditions: 960 h
Root [6] = experiment: Effect on cadmium level in roots of Brassica oleracea (Broccoli) seedlings grown in hydroponic culture containing 1 mg/L in presence of 1 mg/L CdCl2 measured after 40 days after compound treatment; type: ADME; conditions: 960 h
Brassica oleracea [7] = experiment: as §1, with “10” for “40”, “120” for “118”, “8” for “12”; type: functional
Leaf [8] = experiment: Drug level in leaves of Brassica oleracea (Broccoli) seedlings grown in hydroponic culture containing 1 mg/L in presence of 1 mg/L CdCl2 measured after 40 days after compound treatment; type: ADME; conditions: 960 h
Fruit [9] = experiment: Effect on cadmium level in fruits of Brassica oleracea (Broccoli) seedlings grown in hydroponic culture containing 1 mg/L in presence of 1 mg/L CdCl2 measured after 40 days after compound treatment; type: ADME; conditions: 960 h
Root [10] = experiment: Drug level in roots of Brassica oleracea (Broccoli) seedlings grown in hydroponic culture containing 1 mg/L measured after 40 days after compound treatment; type: ADME; conditions: 960 h
Fruit [11] = experiment: Drug level in fruits of Brassica oleracea (Broccoli) seedlings grown in hydroponic culture containing compound at 1 mg/L assessed as Se(IV) level measured after 40 days after compound treatment; type: ADME; conditions: 960 h
Leaf [12] = experiment: Drug level in leaves of Brassica oleracea (Broccoli) seedlings grown in hydroponic culture containing compound at 1 mg/L in presence of 1 mg/L CdCl2 assessed as SeMet level measured after 40 days after compound treatment; type: ADME; conditions: 960 h
Leaf [13] = experiment: Effect on cadmium level in leaves of Brassica oleracea (Broccoli) seedlings grown in hydroponic culture containing 1 mg/L in presence of 1 mg/L CdCl2 measured after 40 days after compound treatment; type: ADME; conditions: 960 h
Root [14] = experiment: Drug level in roots of Brassica oleracea (Broccoli) seedlings grown in hydroponic culture containing compound at 1 mg/L assessed as Se(IV) level measured after 40 days after compound treatment; type: ADME; conditions: 960 h
Root [15] = experiment: Drug level in roots of Brassica oleracea (Broccoli) seedlings grown in hydroponic culture containing compound at 1 mg/L in presence of 1 mg/L CdCl2 assessed as SeMetSeCys level measured after 40 days after compound treatment; type: ADME; conditions: 960 h
Leaf [16] = experiment: Drug level in leaves of Brassica oleracea (Broccoli) seedlings grown in hydroponic culture containing compound at 1 mg/L in presence of 1 mg/L CdCl2 assessed as Se(IV) level measured after 40 days after compound treatment; type: ADME; conditions: 960 h
Leaf [17] = experiment: Drug level in leaves of Brassica oleracea (Broccoli) seedlings grown in hydroponic culture containing 1 mg/L measured after 40 days after compound treatment; type: ADME; conditions: 960 h
Root [18] = experiment: Effect on cadmium level in roots of Brassica oleracea (Broccoli) seedlings grown in hydroponic culture containing 1 mg/L measured after 40 days after compound treatment; type: ADME; conditions: 960 h
Leaf [19] = experiment: Effect on cadmium level in leaves of Brassica oleracea (Broccoli) seedlings grown in hydroponic culture containing 1 mg/L measured after 40 days after compound treatment; type: ADME; conditions: 960 h
Root [20] = experiment: Drug level in roots of Brassica oleracea (Broccoli) seedlings grown in hydroponic culture containing compound at 1 mg/L assessed as SeMetSeCys level measured after 40 days after compound treatment; type: ADME; conditions: 960 h
Brassica oleracea [21] = experiment: Protective effect against cadmium-induced toxicity in Brassica oleracea (Broccoli) seedlings grown in hydroponic culture containing compound at 1 mg/L in presence of 1 mg/L CdCl2 assessed as reduction in MDA level after 30 days after compound treatment by spectrophotometry; type: functional, organism-based
Brassica oleracea [22] = experiment: Effect on chlorophyll level assessed per dry weight in Brassica oleracea (Broccoli) seedlings grown in hydroponic culture containing compound at 1 mg/L after 10 days after compound treatment (reference value: 200 +/- 26 mg/kg); type: functional
Leaf [23] = experiment: Drug level in leaves of Brassica oleracea (Broccoli) seedlings grown in hydroponic culture containing compound at 1 mg/L assessed as SeMetSeCys level measured after 40 days after compound treatment; type: ADME; conditions: 960 h
Root [24] = experiment: Drug level in roots of Brassica oleracea (Broccoli) seedlings grown in hydroponic culture containing 1 mg/L in presence of 1 mg/L CdCl2 measured after 40 days after compound treatment; type: ADME; conditions: 960 h
Leaf [25] = experiment: Drug level in leaves of Brassica oleracea (Broccoli) seedlings grown in hydroponic culture containing compound at 1 mg/L assessed as SeMet level measured after 40 days after compound treatment; type: ADME; conditions: 960 h
Fruit [26] = experiment: Drug level in fruits of Brassica oleracea (Broccoli) seedlings grown in hydroponic culture containing compound at 1 mg/L in presence of 1 mg/L CdCl2 assessed as SeMet level measured after 40 days after compound treatment; type: ADME; conditions: 960 h
Fruit [27] = experiment: Drug level in fruits of Brassica oleracea (Broccoli) seedlings grown in hydroponic culture containing 1 mg/L measured after 40 days after compound treatment; type: ADME; conditions: 960 h
Root [28] = experiment: Drug level in roots of Brassica oleracea (Broccoli) seedlings grown in hydroponic culture containing compound at 1 mg/L assessed as SeMet level measured after 40 days after compound treatment; type: ADME; conditions: 960 h
Fruit [29] = experiment: Drug level in fruits of Brassica oleracea (Broccoli) seedlings grown in hydroponic culture containing compound at 1 mg/L assessed as SeMet level measured after 40 days after compound treatment; type: ADME; conditions: 960 h
Brassica oleracea [30] = experiment: Effect on tocopherol level in Brassica oleracea (Broccoli) seedlings grown in hydroponic culture containing compound at 1 mg/L after 40 days after compound treatment; type: functional, organism-based
Brassica oleracea [31] = experiment: Effect on chlorophyll level assessed per dry weight in Brassica oleracea (Broccoli) seedlings grown in hydroponic culture containing compound at 1 mg/L after 40 days after compound treatment (reference value: 181 +/- 23 mg/kg); type: functional
Fruit [32] = experiment: Drug level in fruits of Brassica oleracea (Broccoli) seedlings grown in hydroponic culture containing compound at 1 mg/L assessed as SeMetSeCys level measured after 40 days after compound treatment; type: ADME; conditions: 960 h
Fruit [33] = experiment: Drug level in fruits of Brassica oleracea (Broccoli) seedlings grown in hydroponic culture containing 1 mg/L in presence of 1 mg/L CdCl2 measured after 40 days after compound treatment; type: ADME; conditions: 960 h
Root [34] = experiment: Drug level in roots of Brassica oleracea (Broccoli) seedlings grown in hydroponic culture containing compound at 1 mg/L in presence of 1 mg/L CdCl2 assessed as Se(IV) level measured after 40 days after compound treatment; type: ADME; conditions: 960 h
Leaf [35] = experiment: Drug level in leaves of Brassica oleracea (Broccoli) seedlings grown in hydroponic culture containing compound at 1 mg/L assessed as Se(IV) level measured after 40 days after compound treatment; type: ADME; conditions: 960 h
Brassica oleracea [36] = experiment: Reduction in MDA level in Brassica oleracea (Broccoli) seedlings grown in hydroponic culture containing compound at 1 mg/L after 30 days after compound treatment; type: functional, organism-based
Fruit [37] = experiment: Drug level in fruits of Brassica oleracea (Broccoli) seedlings grown in hydroponic culture containing compound at 1 mg/L in presence of 1 mg/L CdCl2 assessed as Se(IV) level measured after 40 days after compound treatment; type: ADME; conditions: 960 h
Fruit [38] = experiment: Effect on cadmium level in fruits of Brassica oleracea (Broccoli) seedlings grown in hydroponic culture containing 1 mg/L measured after 40 days after compound treatment; type: ADME; conditions: 960 h

O=[Se]([O-])[O-].[Na+].[Na+] [SODIUM SELENITE]
Drug uptake (Leaf [1]): 0.65 mg/kg | Drug uptake (Root [2]): 5.4 mg/kg | Activity (Brassica oleracea [3]): 175 mg/kg | Activity (Brassica oleracea [4]): 40% | Drug uptake (Fruit [5]): 6.5 mg/kg | Activity (Root [6]): 53 mg/kg | Activity (Brassica oleracea [7]): 177 mg/kg | Drug uptake (Leaf [8]): 1.54 mg/kg | Activity (Fruit [9]): 48 mg/kg | Drug uptake (Root [10]): 20 mg/kg | Drug uptake (Fruit [11]): 1.89 mg/kg | Drug uptake (Leaf [12]): 0.62 mg/kg | Activity (Leaf [13]): 7.5 mg/kg | Drug uptake (Root [14]): 1.4 mg/kg | Drug uptake (Root [15]): 3.4 mg/kg | Drug uptake (Leaf [16]): 0.09 mg/kg | Drug uptake (Leaf [17]): 2 mg/kg | Activity (Root [18]): 0.36 mg/kg | Activity (Leaf [19]): 0.2 mg/kg | Drug uptake (Root [20]): 3.6 mg/kg | Activity (Brassica oleracea [21]): Active | Activity (Brassica oleracea [22]): 155 mg/kg | Drug uptake (Leaf [23]): 0.71 mg/kg | Drug uptake (Root [24]): 21 mg/kg | Drug uptake (Leaf [25]): 0.59 mg/kg | Drug uptake (Fruit [26]): 0.24 mg/kg | Drug uptake (Fruit [27]): 27 mg/kg | Drug uptake (Root [28]): 6.1 mg/kg | Drug uptake (Fruit [29]): 7.2 mg/kg | Activity (Brassica oleracea [30]): Active | Activity (Brassica oleracea [31]): 148 mg/kg | Drug uptake (Fruit [32]): 12.3 mg/kg | Drug uptake (Fruit [33]): 10 mg/kg | Drug uptake (Root [34]): 1.6 mg/kg | Drug uptake (Leaf [35]): 0.082 mg/kg | Activity (Brassica oleracea [36]): Active | Drug uptake (Fruit [37]): 0.039 mg/kg | Activity (Fruit [38]): 0.4 mg/kg
